# Source: US9993001B2, “Herbicidal composition” (ISHIHARA SANGYO KAISHA, LTD., priority 2014, dated 2018)
# Assays:
# Assay type in all cases: in vivo
# [1] = test system: spotted knotweed (Polygonum lapathifolium L.); test: Test Example 2: soybean field, soil treatment, metobromuron + S-metolachlor; conditions: Persicaria lapathifolia, soil, read-out: Growth inhibition rate of spotted knotweed (%) Measured value
# From the text: (§1) When the herbicidal activity in a case where two active ingredients are combined, is larger than the simple sum of the respective herbicidal activities of the two active ingredients (the expected activity), it is called a synergistic effect. The activity expected by the combination of two active ingredients can be calculated as follows (Colby S. R., “Weed”, vol. 15, p. 20-22, 1967). E=α+β−(α×β[…]) where α: growth inhibition rate when treated with x (g/ha) of herbicide X, • β: growth inhibition rate when treated with y (g/ha) of herbicide Y, • E: growth inhibition rate expected when treated with x (g/ha) of herbicide X and y (g/ha) of herbicide Y.
# (§2) On the 19th day after treatment, the state of growth of barnyardgrass was visually observed and evaluated in accordance with the following standards. The growth inhibition rate (%) [measured value] and the growth inhibition rate (%) [calculated value] calculated by the Colby's method, are shown in Table 2.
# (§3) Growth inhibition rate (%)=inhibition rate) (%) of 0 (equivalent to the non-treated area) to 100 (complete kill) […]
# On the 50th day after treatment, the state of growth of spotted knotweed was visually observed and evaluated in the same manner as in Test Example 1.
# [2] = test system: barnyardgrass (Echinochloa crus-qalli L.); test: Test Example 4: soybean field, soil treatment, metobromuron + trifluralin; conditions: soil, read-out: Growth inhibition rate of barnyardgrass (%) Measured value
# From the text: as §1, §2, §3
# On the 50th day after treatment, the state of growth of barnyardgrass (Echinochloa crus-qalli L.) which occurred naturally, was visually observed and evaluated in the same manner as in Test Example 1.
# [3] = test system: Nepalese Smartweed (Persicaria nepalensis (Meisn.) H. Gross); test: Test Example 6: adzuki bean field, soil treatment, metobromuron + S-metolachlor; conditions: soil, read-out: Growth inhibition rate of Nepalese Smartweed (%) Measured value
# From the text: as §1, §2
# (§4) Growth inhibition rate (%)=inhibition rate) (%) of 0 (equivalent to the non-treated area) to 100 (complete kill)
# In an adzuki bean agricultural field (9.6 square meters per one test section), predetermined amounts of SC containing metobromuron as active ingredient (same as in Test Example 1) and EC containing S-metolachlor as active ingredient (same as in Test Example 2) were diluted with water corresponding to 1,000 L per hectare and applied for soil treatment, prior to germination of adzuki bean and weeds.
# On the 39th day after treatment, the state of growth of Nepalese Smartweed (Persicaria nepalensis (Meisn.) H. Gross) which occurred naturally, was visually observed and evaluated in the same manner as in Test Example 1.
# [4] = test system: velvetleaf (Abutilon theophrasti MEDIC.); test: Test Example 13: pot, soil treatment, metobromuron + pyroxasulfone; conditions: soil, read-out: Growth inhibition rate of velvetleaf (%) Measured value
# From the text: as §1, §2, §4
# Soil was put into a 1/300,000 ha pot, and seeds of velvetleaf (Abutilon theophrasti MEDIC.) were sown. Prior to germination of velvetleaf, predetermined amounts of SC containing metobromuron as active ingredient (same as in Test Example 1) and WG containing pyroxasulfone as active ingredient (trade name: Sakura 850 WG, manufactured by Bayer CropScience) were diluted with water corresponding to 1,000 L per hectare and applied for soil treatment.
# On the 12th day after treatment, the state of growth of velvetleaf was visually observed and evaluated in the same manner as in Test Example 1.
# [5] = test system: barnyardgrass (Echinochloa crus-galli L.); test: Test Example 15: pot, soil treatment, metobromuron + chlorpropham; conditions: soil, read-out: Growth inhibition rate of barnyardgrass (%) Measured value
# From the text: as §1, §2, §4
# (§5) Soil was put into a 1/300,000 ha pot, and seeds of barnyardgrass (Echinochloa crus-galli L.) were sown. […]
# On the 21st day after treatment, the state of growth of barnyardgrass was visually observed and evaluated in the same manner as in Test Example 1.
# [6] = test system: barnyardgrass (Echinochloa crus-galli L.); test: Test Example 18: pot, soil treatment, metobromuron + chlorpropham; conditions: soil, read-out: Growth inhibition rate of barnyardgrass (%) Measured value
# From the text: as §1, §2, §4, §5
# (§6) On the 26th day after treatment, the state of growth of barnyardgrass was visually observed and evaluated in the same manner as in Test Example 1.
# [7] = test system: annual bluegrass (Poa annua L.); test: Test Example 19: pot, soil treatment, metobromuron + chlorpropham; conditions: soil, read-out: Growth inhibition rate of annual bluegrass (%) Measured value
# [8] = test system: common lambsquarters (Chenopodium album L.); test: Test Example 20: pot, soil treatment, metobromuron + chlorpropham; conditions: soil, read-out: Growth inhibition rate of common lambsquarters (%) Measured value
# From the text: as §1, §2, §4
# Soil was put into a 1/300,000 ha pot, and seeds of barnyardgrass (Echinochloa crus-galli L.) were sown. On the day after seeding, predetermined amounts of SC containing metobromuron as active ingredient (same as in Test Example 1) and EC containing chlorpropham as active ingredient (same as in Test Example 1) were diluted with water corresponding to 1,000 L per hectare and applied for soil treatment.
# as §6
# The test was carried out in the same manner as in Test Example 18 except that barnyardgrass (Echinochloa crus-galli L.) was changed to common lambsquarters (Chenopodium album L.), to obtain the results as shown in Table 21.
# [9] = test system: black nightshade (Solanum nigrum L.); test: Test Example 23: pot, soil treatment, metobromuron + fluazifop-P-butyl; conditions: Solanum nigrum, soil, read-out: Growth inhibition rate of black nightshade (%) Measured value
# From the text: as §1, §2, §4
# Soil was put into a 1/300,000 ha pot, and seeds of black nightshade (Solanum nigrum L.) were sown. […]
# On the 20th day after treatment, the state of growth of black nightshade was visually observed and evaluated in the same manner as in Test Example 1.
# [10] = test system: large crabgrass (Digitaria sanquinalis L.); test: Test Example 29: pot, soil treatment, metobromuron + indanofan; conditions: soil, read-out: Growth inhibition rate of large crabgrass (%) Measured value
# From the text: as §1, §2, §4
# Soil was put into a 1/300,000 ha pot, and seeds of large crabgrass (Digitaria sanquinalis L.) were sown. On the day after seeding, predetermined amounts of SC containing metobromuron as active ingredient (same as in Test Example 1) and WP containing indanofan as active ingredient were diluted with water corresponding to 1,000 L per hectare and applied for soil treatment.
# On the 20th day after treatment, the state of growth of large crabgrass was visually observed and evaluated in the same manner as in Test Example 1.
structure (smiles),measurement,setting,value
"CON(C)C(=O)Nc1ccc(Br)cc1 [Metobromuron, 3-(4-bromophenyl)-1-methoxy-1-methylurea]",inhibition at 1000 g/ha,[1],58%
same,inhibition at 1000 g/ha,[2],30%
same,inhibition at 1000 g/ha,[3],35%
same,inhibition at 1500 g/ha,[3],40%
same,inhibition at 375 g/ha,[4],28%
same,inhibition at 750 g/ha,[4],55%
same,inhibition at 1500 g/ha,[4],74%
same,inhibition at 1500 g/ha,[5],72%
same,inhibition at 188 g/ha,[6],0%
same,inhibition at 375 g/ha,[7],50%
same,inhibition at 188 g/ha,[8],50%
same,inhibition at 750 g/ha,[9],85%
same,inhibition at 250 g/ha,[10],30%
same,inhibition at 375 g/ha,[10],50%
same,inhibition at 562.5 g/ha,[10],80%
